Results on eight compounds are retold here after ChEMBL document CHEMBL1687931, “Involvement of heme oxygenase-1 induction via Nrf2/ARE activation in protection against H2O2-induced PC12 cell death by a metabolite of sesamin contained in sesame seeds” (2011).

In assay [1] the target is T1, Nuclear factor erythroid 2-related factor 2 (Rattus norvegicus) (UniProt O54968).
T1 sequence (whole entry): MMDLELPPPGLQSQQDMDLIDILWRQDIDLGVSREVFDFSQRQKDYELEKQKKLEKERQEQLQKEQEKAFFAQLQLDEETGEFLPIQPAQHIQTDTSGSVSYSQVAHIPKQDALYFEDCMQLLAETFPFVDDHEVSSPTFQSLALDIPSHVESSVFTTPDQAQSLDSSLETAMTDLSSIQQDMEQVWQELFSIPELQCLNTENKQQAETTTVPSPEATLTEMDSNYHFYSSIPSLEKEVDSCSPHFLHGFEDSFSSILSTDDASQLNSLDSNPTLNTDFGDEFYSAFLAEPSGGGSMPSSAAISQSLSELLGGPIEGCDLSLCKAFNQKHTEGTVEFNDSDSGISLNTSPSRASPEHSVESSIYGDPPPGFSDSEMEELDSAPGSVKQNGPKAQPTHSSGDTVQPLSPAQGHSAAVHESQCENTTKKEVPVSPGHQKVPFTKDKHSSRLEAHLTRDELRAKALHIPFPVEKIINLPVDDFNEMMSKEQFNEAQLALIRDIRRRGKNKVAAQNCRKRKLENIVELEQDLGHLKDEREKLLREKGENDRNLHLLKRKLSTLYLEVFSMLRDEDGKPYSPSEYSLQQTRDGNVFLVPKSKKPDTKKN
Put plainly: Induction of NRF2/ARE enhancer activity rat PC12 cells transfected with ARE-firefly luciferase reporter gene at 10 uM after 24 hrs by luciferase assay. The assay is classed as functional, cell-based. The conditions noted are these: PC-12. Background: In a reporter assay the amount or activity of a reporter protein is the signal.

The target in assay [2] is T1, Nuclear factor erythroid 2-related factor 2 (Rattus norvegicus). Description: Activation of Nrf2/ARE in rat PC12 cells assessed as upregulation of HO-1 protein expression at 10 uM after 6 hrs by Western blot analysis. The assay is classed as functional, cell-based. The following applies: PC-12. (A western blot detects proteins with antibodies after separation by electrophoresis.)

The subject of assay [3] is PC-12. Description: Increase in intracellular ROS production in rat PC12 cells assessed as induction of p38 phosphorylation at 10 uM after 1 hr by Western blot analysis. It is filed as functional, cell-based.
For assay [4], the target named is Mitogen-activated protein kinase 1 (Rattus norvegicus) (UniProt P63086). Description: Phosphorylation of ERK2 in rat PC12 cells at 10 uM after 30 mins by Western blot analysis. The assay is classed as cell-based. The conditions noted are these: PC-12.
Assay [5] concerns PC-12. Put plainly: Neuroprotective activity against H2O2-induced oxidative stress in rat PC12 cells expressing dominant-negative Nrf2 mutant assessed as cell viability pretreated with 10 uM for 6 hrs. It is filed as functional, cell-based.
Assay [6] deals with T1, Nuclear factor erythroid 2-related factor 2 (Rattus norvegicus). Description: Activation of Nrf2/ARE in rat PC12 cells assessed as induction of NQO-1 protein expression by Western blot analysis. The assay is classed as functional, cell-based. The following applies: PC-12.
Assay [7] has as its system PC-12. Description: Neuroprotective activity against H2O2-induced oxidative stress in rat PC12 cells assessed as cell viability pretreated with 5 uM for 6 hrs measured before inducer addition. The assay is classed as functional. The conditions noted are these: read-out: Activity.
Assay [8] has as its system PC-12. Description: Increase in intracellular ROS production in rat PC12 cells assessed as induction of p38 phosphorylation at 10 uM after 1 hr pretreated with N-acetylcysteine for 1 hr before compound addition by Western blot analysis. The assay is classed as functional, cell-based.
In assay [9] the target is T1, Nuclear factor erythroid 2-related factor 2 (Rattus norvegicus). Description: Activation of Nrf2/ARE in rat PC12 cells assessed as upregulation of HO-1 protein expression at 10 uM after 12 hrs by Western blot analysis. It is filed as functional, cell-based. The following applies: PC-12.
For assay [10], the system named is PC-12. Description: Increase in intracellular ROS production in rat PC12 cells at 10 uM after 0.5 hr by CM-H2-DCFDA staining-based fluorescence assay. The assay is classed as functional, cell-based.
The subject of assay [11] is PC-12. Put plainly: Neuroprotective activity against H2O2-induced oxidative stress in rat PC12 cells assessed as cell viability pretreated with 2 uM for 6 hrs measured before inducer addition. It is filed as functional. The conditions noted are these: read-out: Activity.
For assay [12], the system named is PC-12. Put plainly: Increase in intracellular ROS production in rat PC12 cells assessed as NRF2-mediated HO-1 induction at 10 uM after 24 hrs by Western blot analysis. It is filed as functional, cell-based.
Assay [13] deals with PC-12. Put plainly: Increase in intracellular ROS production in rat PC12 cells assessed as NRF2-mediated HO-1 induction at 10 uM after 24 hrs pretreated with N-acetylcysteine for 1 hr before compound addition by Western blot analysis. It is filed as functional, cell-based.
The target of assay [14] is T1, Nuclear factor erythroid 2-related factor 2 (Rattus norvegicus). Description: Induction of nuclear translocation of Nrf2 in rat PC12 cells at 10 uM after 6 hrs by Western blot analysis. The assay is classed as functional, cell-based. The following applies: PC-12.
Assay [15] has the same target. Put plainly: Induction of nuclear translocation of Nrf2 in rat PC12 cells at 10 uM after 1 hr by Western blot analysis. It is filed as functional, cell-based. The conditions noted are these: PC-12.
The target is the same in assay [16]. Put plainly: Activation of Nrf2/ARE in rat PC12 cells assessed as effect on HO-1 protein level at 10 uM after 24 hrs by Western blot analysis. The conditions noted are these: PC-12. It is filed as functional, cell-based.
For assay [17] the target is unchanged. Description: Activation of Nrf2/ARE in rat PC12 cells assessed as upregulation of HO-1 mRNA expression at 10 uM after 6 hrs by RT-PCR. The conditions noted are these: PC-12. The assay is classed as functional, cell-based.
The test system of assay [18] is PC-12. Description: Increase in intracellular ROS production in rat PC12 cells at 10 uM after 6 hrs by CM-H2-DCFDA staining-based fluorescence assay. The assay is classed as functional, cell-based.
Assay [19] concerns the target T1, Nuclear factor erythroid 2-related factor 2 (Rattus norvegicus). Description: Activation of Nrf2/ARE in rat PC12 cells assessed as inhibition of H2O2-induced oxidative stress by measuring cell viability pretreated with 10 uM for 6 hrs in presence of HO-1 inhibitor Zn-protoporphyrin. It is filed as functional, cell-based. The following applies: PC-12.
Assay [20] shares this target. Put plainly: Effect on Nrf2 protein in rat PC12 cell cytoplasmic fraction at 10 uM up to 6 hrs by Western blot analysis. It is filed as functional, cell-based. The following applies: PC-12.
Assay [21] shares this target. Put plainly: Activation of Nrf2/ARE in rat PC12 cells assessed as upregulation of HO-1 protein expression at 1 to 10 uM after 12 hrs by Western blot analysis. It is filed as functional, cell-based. The following applies: PC-12.
For assay [22], the system named is PC-12. Description: Phosphorylation of p38 kinase in rat PC12 cells at 10 uM up to 120 mins by Western blot analysis. The assay is classed as cell-based.
Assay [23] deals with PC-12. Put plainly: Neuroprotective activity against H2O2-induced oxidative stress in rat PC12 cells assessed as cell viability pretreated with 10 uM for 6 hrs measured before inducer addition. It is filed as functional. The conditions noted are these: read-out: Activity.
Assay [24] deals with PC-12. Description: Increase in intracellular ROS production in rat PC12 cells at 10 uM up to 1 hr by CM-H2-DCFDA staining-based fluorescence assay. The assay is classed as functional, cell-based.
Assay [25] relates to PC-12. Put plainly: Phosphorylation of JNK in rat PC12 cells at 10 uM up to 120 mins by Western blot analysis. The assay is classed as cell-based.
In assay [26] the target is Mitogen-activated protein kinase 3 (Rattus norvegicus) (UniProt P21708). Description: Phosphorylation of ERK1 in rat PC12 cells at 10 uM after 30 mins by Western blot analysis. It is filed as cell-based. The following applies: PC-12.
The target in assay [27] is T1, Nuclear factor erythroid 2-related factor 2 (Rattus norvegicus). Put plainly: Activation of Nrf2/ARE in rat PC12 cells assessed as induction of GCSc protein expression at 10 uM by Western blot analysis. The assay is classed as functional, cell-based. The conditions noted are these: PC-12.

Activity calls are given as the source filed them. The calls are words filed in the database; no cut-off is given here.

Chain of Mitogen-activated protein kinase 1 (Rattus norvegicus) (P63086 whole entry): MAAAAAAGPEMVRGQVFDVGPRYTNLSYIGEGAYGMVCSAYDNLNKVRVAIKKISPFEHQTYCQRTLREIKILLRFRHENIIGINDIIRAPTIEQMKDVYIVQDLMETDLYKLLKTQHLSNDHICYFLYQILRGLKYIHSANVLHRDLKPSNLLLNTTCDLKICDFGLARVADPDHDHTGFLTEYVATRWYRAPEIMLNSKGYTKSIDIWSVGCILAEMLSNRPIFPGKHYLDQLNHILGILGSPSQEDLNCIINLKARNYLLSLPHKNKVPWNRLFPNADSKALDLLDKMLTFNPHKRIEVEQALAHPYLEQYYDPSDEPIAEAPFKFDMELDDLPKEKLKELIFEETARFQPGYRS
Chain of Mitogen-activated protein kinase 3 (Rattus norvegicus) (P21708 whole entry): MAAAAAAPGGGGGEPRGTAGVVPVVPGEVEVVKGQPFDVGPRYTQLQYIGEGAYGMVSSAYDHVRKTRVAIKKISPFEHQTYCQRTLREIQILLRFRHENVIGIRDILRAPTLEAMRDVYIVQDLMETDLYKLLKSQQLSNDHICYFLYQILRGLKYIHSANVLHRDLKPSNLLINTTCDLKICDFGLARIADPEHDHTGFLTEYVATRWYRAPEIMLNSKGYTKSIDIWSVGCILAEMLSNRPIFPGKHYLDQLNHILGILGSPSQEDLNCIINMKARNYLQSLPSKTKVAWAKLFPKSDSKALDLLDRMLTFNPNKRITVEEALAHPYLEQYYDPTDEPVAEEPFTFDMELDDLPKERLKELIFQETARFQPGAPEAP

Turning to `c1cc2c(cc1[C@H]1OC[C@H]3[C@@H]1CO[C@H]3c1ccc3c(c1)OCO3)OCO2`, the outcome in assay [1] was inactive.

On to `Oc1ccc(C2OC[C@@H]3C(c4ccc5c(c4)OCO5)OC[C@H]23)cc1O` (some centres undefined), for which the fold change (FC) in assay [1] worked out at 2.

Regarding `c1cc2c(cc1[C@H]1OC[C@H]3[C@@H]1CO[C@@H]3c1ccc3c(c1)OCO3)OCO2`, the outcome in assay [1] was inactive.

Take `Oc1ccc([C@H]2OC[C@H]3[C@@H]2CO[C@H]3c2ccc(O)c(O)c2)cc1O`: the result in [1] was inactive.

Take `COc1cc(C2OC[C@@H]3C(c4ccc5c(c4)OCO5)OC[C@H]23)ccc1O` (mixture of isomers): the outcome in assay [1] was inactive.

Turning to `Oc1ccc([C@H]2OC[C@H]3[C@@H]2CO[C@@H]3c2ccc(O)c(O)c2)cc1O`, the outcome in assay [1] was Active.

Consider `Oc1ccc([C@H]2OC[C@H]3[C@@H]2CO[C@@H]3c2ccc3c(c2)OCO3)cc1O`, for which the outcome (in assay [2]; in the assay on PC-12 [3]; in [4]; in assay [6]; in assay [9]; in the assay on PC-12 [10]) was Active. Moreover, the outcome (in the assay on PC-12 [12]; in assay [14]; in assay [15]; with PC-12 [22]; in the assay with PC-12 [24]; in the assay with PC-12 [25]) was Active. Moreover, the outcome in assay [26] and in [27] was Active. The result (in the assay with PC-12 [5]; in the assay with PC-12 [8]; with PC-12 [13]; in [16]; with PC-12 [18]; in [19]) was inactive. The result in assay [20] was inactive. Further, the viability at 5 µM in the assay on PC-12 [7] came to 67%. Further, the viability at 2 µM with PC-12 [11] is 52%. The fold change (FC) in assay [17] turned out to be 6; in assay [1], 2. For the same compound, the Activity entry in assay [21] was “Dose-dependent effect”. Also, the viability at 10 µM in the assay with PC-12 [23] stood at 82%.

For `COc1cc([C@H]2OC[C@H]3[C@@H]2CO[C@@H]3c2ccc3c(c2)OCO3)ccc1O`, in assay [1], the outcome was inactive.
